# According to patent publication US20250268960A1, “COMPOSITION FOR PREVENTION AND TREATMENT OF OBESITY OR INSULIN RESISTANCE SYNDROME COMPRISING LACTOBACILLUS PLANTARUM HAC03 AND RUTIN” (HANDONG GLOBAL UNIVERSITY INDUSTRY-ACADEMIC COOPERATION …, priority 2023, published 2025):
# System: PR/SET domain 16 (PRDM16)
# Assay: qPCR expression of thermogenesis gene PRDM16 in brown adipose tissue
# Type: in vivo, C57BL6 mice
# Conditions: mRNA, brown adipose tissue (BAT), high-fat diet mice; compared to HFD group
# Protocol: Five-week-old male C57BL6 mice were purchased and acclimated for one week. Then, the mice in each group (n=10) were fed a low-fat diet or high-fat diet. After first allowing them to consume a low-fat diet or high-fat diet for a week, the mice in each group were orally administered with Lactobacillus plantarum HAC03, quercetin, or rutin once a day for 14 weeks.
# Then, the expression levels of lipogenesis-related genes were measured at the mRNA level through qPCR.
# Specifically, the colons of mice in each experimental group were homogenized, dissolved in Trizol® (RNA extraction buffer, Thermo Fisher), and RNA was extracted according to the protocol provided by the manufacturer. The extracted RNA was quantified, and an equal amount of RNA was synthesized into cDNA by reverse transcription using the SuperiorScript III cDNA synthesis Kit (Enzynomics, Daejeon, South Korea). Thereafter, real-time PCR was performed using each gene-specific primer in Table 3, TOPreal qPCR 2X premix (SYBR Green with high ROX) (Enzynomics, Daejeon, South Korea), and cDNA. Real-time PCR was performed using the ABI 7500 Fast Real time PCR system (Applied Biosystems, Waltham, MA, USA). The relative gene expression levels were calculated using the ÄÄCt method.
compound,measurement,value
"O=c1c(O)c(-c2ccc(O)c(O)c2)oc2cc(O)cc(O)c12 [Q, Quercetin]",expression level of PRDM16,increased
